In brackets after ≈: the same amount, converted by molar mass. Starred links: 1 amine or outer side, 2 acyl side, 3 side chain; linkers in the order of their positions; H or OH if unused. Positions of bridges follow the written chain, without caps; N, C: chain ends. Non-standard residues stand in square brackets, D forms with d. Residues, ends and D or L forms follow the SMILES beside them. *: point of attachment. Tetradecanoyl(3R-OH) = CCCCCCCCCCC[C@@H](O)CC(=O)*; X1 = C/C=C(/N[*:1])C(=O)[*:2]; Dhb = C/C=C(\N)C(=O)O
Columns and labels:
A. fumigatus = experiment: Agar diffusion antifungal bioactivity test; assay type: cell-based; details: Aspergillus fumigatus
Method: (§1) Janthinobacterium agaricidamnosum (DSM 9628) was retrieved from the German collection of microorganisms (DSM). The bacteria were cultured in nutrient media (605 DSM without NaCl; 1 g/L beef extract, 2 g/L yeast extract, 5 g/L peptone, 15 g/L agar). Plates and liquid cultures (shaken at 150 rpm in baffled flasks) were grown at 22° C. and 28° C., respectively. During screening plates and liquid cultures of modified nutrient agar (additional 4 g/L chitin, 100 g/L mushroom cubes), M9 (6 g/L Na2HPO4, 3 g/L KH2PO4, 0.5 g/L NaCl, 2 g/L NH4Cl, 4 g/L glucose, […], 2 mM MgSO4, 15 g/L agar), MS (20 g/L mannite, 20 g/L soy flour, 20 g/L agar) and modified VK (5 g/L glycine, 10 g/L yeast extract, 10 g/L glucose, 10 g/L corn steep, 10 g/L CaCO3, 15 g/L agar pH 6.7-7.0) media were used. For the production of jagaricin J. agaricidamnosum was grown in modified VK medium. The selection of positive J. agaricidamnosum mutants was carried out on nutrition agar supplemented with 50 μg/mL kanamycin. For the construction of pKG01, Escherichia coli Top 10 cells and E. coli ER2925 cells were used. E. coli was cultured in LB medium (10 g/L tryptone, 5 g/L yeast extract, 5 g/L NaCl, 1 g/L glucose) supplemented with 50 μg/mL kanamycin. Candida albicans, Aspergillus fumigatus and A. terreus were used for the bioactivity tests and they were cultivated on malt agar (C. albicans; 40 g/L malt extract, 4 g/L yeast extract, 15 g/L agar, pH 5.7-6.0) and potato glucose agar (A. fumigatus and A. terreus; 4 g/L potato starch infusion, 20 g/L dextrose, 15 g/L agar) plates, respectively.
(§2) 50 μL of different concentrated jagaricin solutions were each pipetted into a pierced hole (9 mm diameter) within an agar plate that was inoculated with the test strains C. albicans, A. fumigatus and A. terreus, respectively. After incubation at 24° C. over night the inhibition zone was measured. The antiproliferative and cytotoxic assay were performed as previously described (Abdou, R. et al., Phytochemistry, 2009. 71(1): p. 110-6).

A. terreus = experiment: Agar diffusion antifungal bioactivity test; assay type: cell-based; details: Aspergillus terreus
Method: as §1, §2

C. albicans = experiment: Agar diffusion antifungal bioactivity test; assay type: cell-based; details: Candida albicans
Method: as §1, §2

Cytotoxic assay = assay type: cell-based; details: human, HeLa cells (human cervix carcinoma)
Method: as §2

bacteria = experiment: Antibacterial activity (data not shown); assay type: cell-based
[1] = test system: human chronic myeloid leukemia cells K-562; experiment: Antiproliferative assay; assay type: cell-based; details: K562, K-562, antiproliferative
Method: as §2

[2] = test system: human umbilical vein endothelial cells HUVEC; experiment: Antiproliferative assay; assay type: cell-based
Method: as §2

mushroom tissue = experiment: Application of purified jagaricin on mushroom tissue; design: species or system Agaricus bisporus; details: purified jagaricin applied to mushroom tissue

With `C/C=C1\NC(=O)[C@@H](Cc2ccc(O)cc2)NC(=O)[C@@H]([C@H](C)O)NC(=O)[C@@H](NC(=O)/C(=C\C)NC(=O)C[C@H](O)CCCCCCCCCCC)[C@@H](C)OC(=O)[C@H](Cc2c[nH]cn2)NC(=O)[C@H]([C@@H](C)O)NC(=O)CNC(=O)[C@@H](CCC(N)=O)NC1=O` [jagaricin] ({Tetradecanoyl(3R-OH)}-[X1]T[dT][dY][Dhb][dQ]GTH; ester 2-C) the MIC (A. fumigatus) was 0.41 µM (≈ 0.484 µg/mL), the MIC (A. terreus) was 0.28 µM (≈ 0.331 µg/mL) and the MIC (C. albicans) was 0.42 µM (≈ 0.496 µg/mL). For the same molecule, the CC50 (Cytotoxic assay) was 3.8 µM, the antibacterial activity (bacteria) was “little or no antibacterial activity” and the GI50 [1] was 1 µM. For the same molecule, the GI50 [2] was 1 µM and the “lesion on mushroom tissue” value (mushroom tissue) was “caused a superficial lesion on mushroom tissue”.

Reference: patent US20150210741A1, “JAGARICIN DERIVATIVES AND THEIR USE AS FUNGICIDE OR ANTITUMOR AGENT” (Leibniz-Institut Für Naturstoff-Forschung Und …, priority 2012, published 2015)
